System: pdr5 ypt1^ts cells
Assay: microbe, parasite or virus in culture
Assay type: cell-based, yeast
Conditions: 37° C.; for minimal effective concentration: Saccharomyces cerevisiae, lowest concentration tested giving growth above the 0 μM background, read-out: ypt1-ts MRC (minimal rescue concentration); for minimal effective concentration / optical density, ypt1-ts, 0.39 / optical density, ypt1-ts, 0.78 / optical density, ypt1-ts, 1.56 / optical density, ypt1-ts, 3.13 / optical density, ypt1-ts, 6.25 / optical density, ypt1-ts, 12.5 / optical density, ypt1-ts, 25: Table 2; for optical density, ypt1-ts, 0.39: 0.39 μM compound; for optical density, ypt1-ts, 0.39 / optical density, ypt1-ts, 0.78 / optical density, ypt1-ts, 1.56 / optical density, ypt1-ts, 3.13 / optical density, ypt1-ts, 6.25 / optical density, ypt1-ts, 12.5 / optical density, ypt1-ts, 25: background (0 μM) 0.058; for optical density, ypt1-ts, 0.78: 0.78 μM compound; for optical density, ypt1-ts, 1.56: 1.56 μM compound; for optical density, ypt1-ts, 3.13: 3.13 μM compound; for optical density, ypt1-ts, 6.25: 6.25 μM compound; for optical density, ypt1-ts, 12.5: 12.5 μM compound; for optical density, ypt1-ts, 25: 25 μM compound; for optical density, 3.13 uM / optical density, 12.5 uM / optical density, 50 uM: Table 3, background (0 uM) 0.077; for optical density, 3.13 uM: 3.13 uM compound; for optical density, 12.5 uM: 12.5 uM compound; for optical density, 50 uM: 50 uM compound
Excerpt: The activity of the compounds as modulators of protein trafficking may be measured in the assays described herein that evaluate the ability of a compound to rescue an impairment in protein trafficking. For example, the yeast mutant cell line ypt1^ts can be used to identify compounds that rescue cells from the lethal phenotype of a mutant YPT1 allele (see, e.g., Examples and Schmitt et al. (1988) Cell 53:635-47). The activity may be measured, for example, in a whole yeast cell assay using 384-well screening protocol and an optical density measurement.
The yeast mutant cell line ypt1^ts suppresses, in a temperature dependent fashion, the dominant-lethal phenotype of a mutant YPT1 allele (Schmitt et al. (1988) Cell 53:635-47). ypt1^ts cells grow normally at temperatures up to 30° C., but are growth arrested at 37° C. (Id.).
A library of compounds (“The Spectrum Collection”) obtained from Microsource Discovery Systems, Inc. (Gaylordsville, Conn.) was screened to assess the ability of individual compounds to restore growth of ypt1^ts cells. Screening was carried out using ypt1^ts cells containing a mutation in the pdr5 gene (resulting in inactivation of a membrane efflux pump). The effect of the compounds was measured in pdr5 ypt1^ts cells cultured at 37° C.

| SMILES | minimal effective concentration | optical density, ypt1-ts, 0.39 | optical density, ypt1-ts, 0.78 | optical density, ypt1-ts, 1.56 | optical density, ypt1-ts, 3.13 | optical density, ypt1-ts, 6.25 | optical density, ypt1-ts, 12.5 | optical density, ypt1-ts, 25 | optical density, 3.13 uM | optical density, 12.5 uM | optical density, 50 uM |
| --- | --- | --- | --- | --- | --- | --- | --- | --- | --- | --- | --- |
| CC(=O)c1cc(CC=C(C)C)c(O)c(CC=C(C)C)c1 | 25 µM | 0.085 | 0.077 | 0.082 | 0.108 | 0.096 | 0.112 | 0.195 | – | – | – |
| COc1ccc2c(c1)OCC(Cc1ccc(OC)c(O)c1)C2=O (centres unmarked) | 12.5 µM | 0.099 | 0.068 | 0.085 | 0.101 | 0.125 | 0.319 | 0.62 | – | – | – |
| O=C(/C=C(\O)c1ccccc1)c1ccccc1O [2',beta- DIHYDROXYCHALCONE] | 12.5 µM | 0.083 | 0.072 | 0.076 | 0.096 | 0.124 | 0.31 | 0.551 | – | – | – |
| CCOc1ccc(C(=O)c2ccc(O)c(O)c2O)cc1 [2,3,4-TRIHYDROXY-4'- ETHOX[…]] | 12.5 µM | 0.114 | 0.074 | 0.081 | 0.103 | 0.1 | 0.169 | 0.365 | – | – | – |
| COC(=O)CCCOc1ccc(Cl)cc1Cl [2,4-DICHLORO- PHENOXY- BUTYRIC ACID, METHYL ESTER] | – | – | – | – | – | – | – | – | 0.159 | 0.255 | 0.221 |
| CCOC(=O)C1(O)Oc2cc(OC)cc(OC)c2C(=O)C1c1ccccc1 (centres unmarked) [2-ETHOXY- CARBONYL-2- HYDROXY-5,7- DIMETHOXY- ISOFLAVANONE] | – | – | – | – | – | – | – | – | 0.091 | 0.134 | 0.468 |
| O=c1c2ccccc2oc2ccc(O)cc12 [2-HYDROXY- XANTHONE] | – | – | – | – | – | – | – | – | 0.107 | 0.257 | 0.571 |
| COc1cccc(/C=C/C(=O)O)c1C(C)C [2-ISOPROPYL-3- METHOXYCINNAMIC ACID] | 12.5 µM | 0.097 | 0.079 | 0.086 | 0.111 | 0.123 | 0.184 | 0.397 | – | – | – |
| COc1ccc2oc3ccccc3c(=O)c2c1 [2-METHOXYXANTHONE] | – | 0.093 | 0.069 | 0.083 | 0.094 | 0.108 | 0.128 | 0.221 | – | – | – |
| Cc1[nH]c2ccccc2c1CN(C)C [2-METHYL GRAMINE] | – | – | – | – | – | – | – | – | 0.084 | 0.106 | 0.295 |
| CCCc1occc(=O)c1/C=C/O [2-PROPYL-3- HYDRO[…]-4-ONE] | 25 µM | 0.091 | 0.079 | 0.083 | 0.092 | 0.088 | 0.104 | 0.126 | – | – | – |
| c1ccc2c(Cc3c[nH]c4ccccc34)c[nH]c2c1 [3,3'- DIINDOLYLMETHANE] | 3.13 µM | 0.205 | 0.097 | 0.118 | 0.164 | 0.154 | 0.263 | 0.035 | – | – | – |
| CCOc1cccc(C(=O)c2ccc(O)c(O)c2O)c1 [3,4-DIDESMETHYL-5- DESHYDROXY-3'- ETHOXYSCLEROIN] | 6.25 µM | 0.094 | 0.075 | 0.091 | 0.108 | 0.143 | 0.185 | 0.396 | – | – | – |
| O=c1oc2ccccc2cc1O [3- HYDROXY- COUMARIN] | – | – | – | – | – | – | – | – | 0.083 | 0.109 | 0.299 |
| COC(=O)C[C@H]1C(C)(C)[C@@H](O)[C@@H]2CC3=C4C=C(OC)O[C@@H](c5ccoc5)[C@]4(C)CCC3[C@]1(C)C2=O (stereo partly drawn) [3-DEOXO-3beta-HYDRO[…] 16-ENOL ETHER] | 3.13 µM | 0.102 | 0.077 | 0.091 | 0.141 | 0.219 | 0.583 | 0.625 | – | – | – |
| C=C1[C@H]2CC[C@@]3(C)[C@H](c4ccoc4)OC(=O)C[C@]13O[C@H]1C[C@H](O)C(C)(C)[C@H](CC(=O)OC)[C@]12C [3-DEOXY-3beta- HYDROXY- […] METHYL ESTER] | – | – | – | – | – | – | – | – | 0.384 | 0.641 | 0.621 |
| COc1ccc(C(=O)c2ccccc2)c(O)c1O [3-DESMETHYL- 5-DES- HYDROXY- SCLEROIN] | – | – | – | – | – | – | – | – | 0.11 | 0.149 | 0.556 |
| C[C@]12CC[C@@H](O)C[C@H]1CCc1ccccc12 [3alpha- HYDROXY-4,4- BISNOR- 8,11,13- PODO- […]] | – | – | – | – | – | – | – | – | 0.074 | 0.104 | 0.408 |
| CC(=O)O[C@@H]1CC2C(C)(C)[C@H](O)CC[C@]2(C)C2CC[C@@]3(C)[C@H](c4ccoc4)OC(=O)C4OC43[C@@]21C (stereo partly drawn) [3alpha- HYDROXY- DEOXO- DIHYDRO- GEDUNIN] | – | – | – | – | – | – | – | – | 0.137 | 0.25 | 0.146 |
| C=C1[C@H]2CC[C@@]3(C)[C@H](c4ccoc4)OC(=O)C[C@]13O[C@H]1C[C@@H](O)C(C)(C)[C@H](CC(=O)OC)[C@]12C [3alpha-HYDROXY-3- DEOXY[…] METHYL ESTER2] | 3.13 µM | 0.169 | 0.078 | 0.093 | 0.144 | 0.381 | 0.566 | 0.611 | – | – | – |
| C=C1C2CC[C@@]3(C)[C@H](c4ccoc4)OC(=O)C[C@]13O[C@H]1C[C@H](OC(C)=O)C(C)(C)[C@H](CC(=O)OC)[C@@]21C [3beta- ACETO[…] ACID, METHYL ESTER] | 1.56 µM | 0.129 | 0.096 | 0.133 | 0.374 | 0.538 | 0.571 | 0.553 | – | – | – |
